From publication PMC12109337, “Engineered Fluorescent Variants of Lactadherin C2 Domain for Phosphatidylserine Detection in Flow Cytometry” (Biomolecules, 2025) come the findings set out here.

In assay [1] the target is T1, axV-mNG (Homo sapiens, UniProt P08758).
T1 construct: gene ANXA5; N-terminal 6xHis, annexin V with C-terminal mNeonGreen fusion (also printed mNG-axV), tags kept, pET-28a(+), E. coli Rosetta-Gami 2(DE3)pLysS, Ni-NTA
T1 sequence (P08758 2-320): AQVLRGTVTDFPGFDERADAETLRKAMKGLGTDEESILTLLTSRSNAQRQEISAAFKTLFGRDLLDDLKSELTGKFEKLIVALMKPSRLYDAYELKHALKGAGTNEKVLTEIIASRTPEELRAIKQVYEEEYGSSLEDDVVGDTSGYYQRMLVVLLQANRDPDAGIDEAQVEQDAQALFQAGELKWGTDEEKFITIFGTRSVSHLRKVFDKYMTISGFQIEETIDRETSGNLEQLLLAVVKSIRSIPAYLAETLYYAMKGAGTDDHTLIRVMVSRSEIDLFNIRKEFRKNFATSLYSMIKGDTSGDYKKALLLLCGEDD
Description: equilibrium binding to liposomes, flow cytometry. To be noted: 20:80 PS/PC liposomes, not free lipid; Kd is the protein concentration at half occupation; Hill coefficient ~1.2; HBS pH 7.4 with 2.5 mM CaCl2; 1 h; read-out: Kd (apparent, Hill). For orientation: In flow cytometry, cells or beads pass a laser one at a time.

Assay [2] addresses T2, mNG-lactC2 (Bos taurus, UniProt Q95114).
T2 construct: gene MFGE8; C2 domain (residues 270-427), N-terminal 6xHis and mNeonGreen fusion kept, pET-28a(+), E. coli Rosetta-Gami 2(DE3)pLysS, Ni-NTA
T2 sequence (Q95114 270-427): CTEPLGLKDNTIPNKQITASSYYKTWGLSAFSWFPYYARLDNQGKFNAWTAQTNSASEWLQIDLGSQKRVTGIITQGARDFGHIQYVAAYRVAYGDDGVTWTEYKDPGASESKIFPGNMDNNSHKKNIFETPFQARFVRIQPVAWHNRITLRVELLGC
Description: equilibrium binding to liposomes, flow cytometry. To be noted: 20:80 PS/PC liposomes, not free lipid; Kd is the protein concentration at half occupation; Hill coefficient ~1.2; HBS pH 7.4, no calcium; 1 h; read-out: Kd (apparent, Hill).

Regarding “1,2-diacyl-sn-glycero-3-phospho-L-serine [phosphatidylserine]”, the Kd in assay [1] came to 10 nM; in assay [2], 107 nM.
